Source: patent US20250288572A1, “COMPOSITIONS AND METHODS FOR TREATING PULMONARY VASCULAR DISEASE” (UNIVERSITY OF PITTSBURGH-OF THE COMMONWEALTH SYSTEM OF …, priority 2022, published 2025)
“Also recorded” adds a separate entry of the source.

Key:
mitochondrial Complex 1 = assay: Mitochondrial Complex 1 activity in PASMCs; format: cell-based, human; settings: IL-6/sIL-6R + hypoxia
Protocol: (§1) BRD2889 (1 uM) vs. vehicle control were added, as indicated, and placed into a hypoxia chamber for 24 h. The hypoxia chamber (modular incubator chamber) was obtained from Billups-Rothenberg Inc. (Del Mar, Cali) and placed in regulated CO2 incubator at 37° C.
Measurement of mitochondrial complex activities: Complex 1 activity of isolated mitochondria were measured using Complex 1 Enzyme Activity Microplate assay kit (Abcam, ab109721) according to the manufacturer's protocol. These enzymes were captured within the wells of the microplate coated by the corresponding complex enzyme antibody, and activities were detected colorimetrically.

PASMCs [1] = assay: Apoptosis (caspase 3/7) in PASMCs; format: cell-based, human; settings: IL-6/sIL-6R + hypoxia
Protocol: as §1
(§2) Cellular apoptosis: Caspase-3/7 activity was quantified using the Caspase-Glo 3/7 Assay (Promega), according to manufacturer's instructions. Caspase-3/7 activity was normalized to total protein content determined by BCA method (Thermo Fisher Scientific).

hypoxic IL-6 Tg mice = assay: Chronically hypoxic IL-6 transgenic PAH mouse model; format: in vivo, IL-6 transgenic mice (C57B/6 background)
Protocol: Pulmonary-specific IL-6 transgenic mice (C57B/6 background) were described previously (Steiner M K et al. Circ Res. 2009, 104, 236-244, 228p following 244). These mice were bred in house, and 12 week old male transgenic mice vs. control littermates were compared. Mice were injected i.p. every 3 days with vehicle control (2.5% DMSO) vs. BRD2889 (5 mg/kg vs. […] Circ Res. 2009, 104, 236-244, 228p following 244).
(§3) Rodent echocardiography: Echocardiography was performed using a 15-45M Hz transthoracic transducer and a Visual Sonics Vevo 3100 system (Fujifilm). Inhaled isoflurane anesthesia was used at 2% in 100% 02 during positioning and hair removal and then decreased to isoflurane 0.8% during imaging.

PASMCs [2] = assay: RT-qPCR gene expression in PASMCs; format: cell-based, human; settings: hypoxia, BRD2889 5 uM
Excerpt: Cell culture: Primary human pulmonary artery endothelial cells (PAECs) and human pulmonary artery smooth muscle cells (PASMCs) were purchased from Lonza (302-05A, CC-2581). Of note, the same two male donors were the source of all PAECs in the experiments shown. Two additional male donors were the source for all PASMCs in the experiments shown. Cells from these and any donors were characterized by flow cytometry for consistent expression of cell surface markers and by RNA (RT-qPCR) analysis of endothelial and smooth muscle gene expression. PAECs were cultured in EGM-2 media (CC-3121) along with supplements (CC-4133), and PASMCs were cultured in SmGM-2 culture media (Lonza, CC-3182) at 5% CO2 in a humidified incubator.
RT-qPCR analysis: Cells were lysis in 1 ml of QiaZol reagent (Qiagen). Total RNA content was extracted using the RNeasy kit (Qiagen), according to the manufacturer's instructions. Total RNA concentration was determined using a BioTek Synergy multimode plate reader. Messenger RNAs were reverse transcribed to generate cDNA using the Multiscript RT kit (Thermo Fisher Scientific). cDNA for specific gene targets was amplified and quantified via fluorescently-labeled Taqman primer sets and Taqman fast advanced master mix (Thermo Fisher Scientific) using an Applied Biosystems QuantStudio 6 Flex Real-Time PCR System.

ISCU = assay: Immunoblot and densitometry of ISCU and GSTP1 in PAECs; format: cell-based, human
Protocol: as §1
Immunoblot and densitometry: Cells were lysed in RIPA buffer (Sigma) along with 1× protease inhibitor cocktail (Sigma). Protein lysate was resolved by gradient 4%-15% SDS-PAGE gels and transferred onto a 0.2 μm PVDF membrane (Bio-Rad). Membranes were blocked in 5% non-fat milk in 1×PBST buffer for one hour at room temperature. Later, they were incubated in the presence of the primary antibody overnight at 4° C., and then appropriate HRP-conjugated secondary antibodies (Life Technologies). The following antibodies were used: human LGALS8 (AF1305, RnD Systems), mouse/rat Lgals8 ([…], Abcam), pSTAT1 (ab29045, Abcam) and STAT1 (ab47425, Abcam), GSTP1 (ab153949, Abcam), ISCU (14812-1-AP, Pointech), Glutathione (ab19534, Abcam), HIF2A (NB100-122, Novous), α-Tubulin (CP06, Millipore sigma), and ACTB (sc-47778, Santa Cruz). The immunoreactive bands were visualized with the Chemidoc XRS+ system (Bio-Rad) using SuperSignal West Femto chemiluminescent substrates (Thermo Fisher Scientific). The images were later quantified using AlphaEaseFC software (Alpha Innotech).

[3] = test system: SU5416-hypoxic pulmonary arterial hypertension rats; assay: SU5416-hypoxia pulmonary arterial hypertension rat model, disease-reversal dosing; format: in vivo, Sprague-Dawley rats
Protocol: Briefly, 10 week old male Sprague-Dawley rats were injected i.p. with 20 mg/kg of SU5416 (Sigma), placed in normobaric hypoxia (10% 02) for 3 weeks and then transferred to normoxia for 2 weeks. During hypoxic exposure, chambers were opened twice a week for cleaning and replenishment of food and water. […] For BRD2889 vs. vehicle control dosing, i.p. injections every 5 days (5 mg/kg) were administered during the final two weeks of normoxia. Oxygen concentrations were continuously monitored with blood gas analyzers.
Measurement of GST activity: The GST activity from lung tissue and PAECs was assayed using GST assay kit (Cayman, MI, USA) per the manufacturer's instructions.
as §3

PASMCs [4] = assay: BrdU proliferation in PASMCs; format: cell-based, human; settings: IL-6/sIL-6R + hypoxia
Protocol: as §1
BrdU growth assay: Cell proliferation was assayed relative to day 0 using a BrdU Cell Proliferation Assay Kit (#6813, Cell Signaling) according to the manufacturer's protocol after incubation for 2 h with BrdU.

PAECs = assay: Cellular apoptosis, caspase-3/7 activity (Caspase-Glo 3/7) in PAECs; format: cell-based, human
Protocol: The hypoxia chamber (modular incubator chamber) was obtained from Billups-Rothenberg Inc. (Del Mar, Cali) and placed in regulated CO2 incubator at 37° C.
as §2

[5] = BRD2889 10 mg/kg vs vehicle, 10 days, 10 mg/kg
[6] = BRD2889 5 and 10 mg/kg i.p. every three days
[7] = PAECs, IL-6/sIL-6R + hypoxia, BRD2889 1 uM
[8] = SU5416-hypoxia rats, vs vehicle control
[9] = SU5416-hypoxia rats, I-BET762 30 mg/kg daily i.p. or BRD2889 5 mg/kg i.p. every 5 days, final 2 weeks

COc1ccc(C#CC2CCCN(C(=O)/C=C/c3cc(OC)c(OC)c(OC)c3)C2=O)cc1 (stereo not shown) [BRD2889, (E)-3-((4-methoxyphenyl)ethynyl)-1-(3-(3,4,5-trimethoxyphenyl)acryloyl)piperidin-2-one]
mitochondrial Complex 1 activity (mitochondrial Complex 1): did not affect | apoptosis (PASMCs [1]): only subtly changed | heart rate (hypoxic IL-6 Tg mice; [5]): No significant differences | left ventricular function (fractional shortening, ejection fraction, posterior wall thickness) (hypoxic IL-6 Tg mice; [5]): No significant differences | Fulton index (RV/LV+S) (hypoxic IL-6 Tg mice; [6]): dose-dependent reduction; also recorded: reduced | ISCU in arterioles / CD31+ endothelium (hypoxic IL-6 Tg mice; [6]): rescued ISCU; also recorded: increased | RVSP (hypoxic IL-6 Tg mice; [6]): dose-dependent reduction; also recorded: reduced | arteriolar muscularization / pulmonary arteriolar remodeling (hypoxic IL-6 Tg mice; [6]): reduction; also recorded: reduced | cleaved caspase-3 (CC-3), endothelial apoptosis (hypoxic IL-6 Tg mice; [6]): reduction; also recorded: decreased | lung total GST enzyme activity (hypoxic IL-6 Tg mice; [6]): dose-dependent reduction; also recorded: decreased lung GST activity in a dose-dependent manner | ISCU transcript (PASMCs [2]): unaffected by BRD2889 | mTOR transcript (PASMCs [2]): no change in mTOR | GSTP1 expression (ISCU; [7]): without altering GSTP1 expression | ISCU expression (immunoblot) (ISCU; [7]): reversed the decrease in ISCU expression; also recorded: reversed the IL-6/R+hypoxic decrease | GSTP1 expression (ISCU; hypoxic PAECs): did not affect GSTP1 expression | ISCU protein levels (ISCU; hypoxic PAECs): reversed hypoxia-dependent reduction of ISCU protein levels; also recorded: ISCU levels were increased; also recorded: reversed hypoxic alterations; also recorded: reversed these findings; also recorded: also reversed the hypoxia-induced reduction of ISCU | aortic blood pressure (mean arterial pressure, MAP) [3, 8]: without significant alterations | heart rate [3, 8]: without significant alterations | left ventricular function (LVPW thickness, LVEF, LVFS; echocardiography) [3, 8]: no alteration of left ventricular function; also recorded: did not exhibit altered left ventricular function | endothelial ISCU (immunofluorescence) ([3]; SU5416-hypoxia rats, BRD2889 5 mg/kg i.p. every 5 days): increased | lung GST activity ([3]; SU5416-hypoxia rats, BRD2889 5 mg/kg i.p. every 5 days, 5 mg/kg): reduced; also recorded: decreased | transcript levels of injury markers of liver (Got, Gpt1) and kidney (Cst3, Lcn2), tissue toxicity ([3]; SU5416-hypoxia rats, BRD2889 vs VC, RT-qPCR): no indication of overt tissue toxicities | Fulton index (RV/LV+S) [3, 9]: reducing; also recorded: reduced | arteriolar muscularization (α-SMA) [3, 9]: reducing; also recorded: reduced | cleaved caspase-3 (CC-3), endothelial apoptosis [3, 9]: reducing; also recorded: decreased | right ventricular systolic pressure (RVSP) [3, 9]: reducing; also recorded: reduced | ascites ([3]; three SU5416-hypoxic rats treated with drug): accumulation of mild ascites | proliferation (PASMCs [4]): did not affect | apoptosis (caspase 3/7 activity) (PAECs; PAECs, IL-6/sIL-6R + hypoxia): reduced apoptosis; also recorded: reversing | apoptosis (caspase 3/7 activity) (PAECs; hypoxic PAECs with siRNA knockdown of ISCU): did not reverse the hypoxic increase | apoptosis (caspase 3/7 activity) (PAECs; hypoxic PAECs, BRD2889): reversed the increase in apoptosis; also recorded: reversed hypoxic alterations
